Reference: US9988429B2, “Glucagon analogues” (Zealand Pharma A/S, priority 2013, dated 2018)
pEC50: −log10 of the molar value. Starred links: 1 amine or outer side, 2 acyl side, 3 side chain; linkers in the order of their positions; H or OH if unused. Non-standard residues stand in square brackets, D forms with d. Residues, ends and D or L forms follow the SMILES beside them. Groups on a side chain read outwards from the residue. *: point of attachment. γGlu = O=C(O)[C@H](CCC(=O)[*:2])N[*:1]; Palmitoyl = CCCCCCCCCCCCCCCC(=O)*; Ac4c = NC1(C(=O)O)CCC1; Aib = CC(C)(N)C(=O)O

What was measured:
Assay type in all cases: cell-based
[1] = target: T1, human glucagon receptor (Glucagon-R) (Homo sapiens, UniProt P47871); experiment: Glucagon receptor efficacy assay (cAMP AlphaScreen, CHO cells); conditions: cAMP formation, CHO cells expressing human Glucagon-R; read-out: EC50 hGCGR CHO-K1
T1 construct: expressed in transfected cells
T1 sequence (P47871 26-477): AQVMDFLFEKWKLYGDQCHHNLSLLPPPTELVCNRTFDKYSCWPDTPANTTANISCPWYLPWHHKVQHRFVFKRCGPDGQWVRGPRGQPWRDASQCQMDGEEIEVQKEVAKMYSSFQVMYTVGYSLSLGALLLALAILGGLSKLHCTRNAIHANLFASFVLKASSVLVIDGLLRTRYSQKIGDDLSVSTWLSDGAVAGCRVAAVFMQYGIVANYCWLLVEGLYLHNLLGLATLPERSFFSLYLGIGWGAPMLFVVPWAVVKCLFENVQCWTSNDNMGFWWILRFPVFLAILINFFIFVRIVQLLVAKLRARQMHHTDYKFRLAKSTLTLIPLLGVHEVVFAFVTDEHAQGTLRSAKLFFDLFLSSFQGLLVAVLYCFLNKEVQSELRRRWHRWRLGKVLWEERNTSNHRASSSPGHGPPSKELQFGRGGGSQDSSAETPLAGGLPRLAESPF
Method: (§1) The mammalian expression vectors encoding the Glucagon-R or the GLP-1-R were transfected into Chinese hamster ovary (CHO) cells by the Attractene method. Stably expressing clones were obtained by Zeocin selection (250 μg/mL) upon limited dilution of cells resistant to the selection pressure. […] One Glucagon-R expressing clone and one GLP-1-R expressing clone were chosen for compound profiling.
(§2) CHO cells expressing the human Glucagon-R, or human GLP-1-R were seeded 24 hours prior to the assay at 30,000 cells per well in 96-well microtiter plates in culture in 100 μl growth medium. On the day of analysis, growth medium was removed and the cells were washed once with 200 μl of assay buffer (Krebs-Ringer-buffer—KRBH). The buffer was removed and the cells were incubated for 15 min at room temperature in 10 μl KRBH (KRBH+10 mM HEPES, 5 mM NaHCO3, 0.1% (V/V) BSA) with 0.1 mM IBMX in deionized water containing increasing concentrations of test peptides. The reaction was stopped by the addition of lysis buffer (0.1% w/v BSA, 5 mM HEPES, 0.3% v/v Tween-20). After cell lysis for 10 min at room temperature, lysates were transferred to 384-well plates and 10 μl of acceptor/donorbead mixture as contained in the AlphaScreen™ cAMP Functional Assay Kit was added. After one hour of incubation at room temperature in the dark, the cAMP content was determined applying the AlphaScreen™ cAMP Functional Assay Kit from Perkin-Elmer according to manufacturer instructions. […] The GLP-1/glucagon ratio is calculated as defined earlier.

[2] = target: T2, human glucagon-like peptide 1 receptor (GLP-1R) (Homo sapiens, UniProt P43220); experiment: GLP-1 receptor efficacy assay (cAMP AlphaScreen, CHO cells); conditions: for Ratio GLP-1/Glucagon: EC50 [GLP-1R] / EC50 [Glucagon-R], human receptors in CHO-K1
T2 construct: expressed in transfected cells
T2 sequence (P43220 24-463): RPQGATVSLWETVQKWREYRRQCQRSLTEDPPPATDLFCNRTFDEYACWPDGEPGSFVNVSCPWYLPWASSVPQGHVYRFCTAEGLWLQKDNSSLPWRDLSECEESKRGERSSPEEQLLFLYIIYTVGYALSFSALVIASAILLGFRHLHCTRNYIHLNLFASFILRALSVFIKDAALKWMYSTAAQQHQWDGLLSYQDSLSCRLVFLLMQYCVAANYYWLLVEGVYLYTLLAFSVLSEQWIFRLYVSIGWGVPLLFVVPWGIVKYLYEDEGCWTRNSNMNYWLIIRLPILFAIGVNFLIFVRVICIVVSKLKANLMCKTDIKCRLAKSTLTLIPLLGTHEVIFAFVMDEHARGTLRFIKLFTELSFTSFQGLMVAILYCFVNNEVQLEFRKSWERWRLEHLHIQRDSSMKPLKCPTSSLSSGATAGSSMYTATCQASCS
Method: as §1, §2

[3] = target: T3, endogenous GLP-1 receptors (Mus musculus, UniProt O35659); experiment: Agonistic activity on endogenous GLP-1 receptor, cAMP in murine insulinoma cell line; conditions: intracellular cAMP
T3 construct: Agonistic activity of the test compounds on endogenous GLP-1 receptors; endogenous in cells
T3 sequence (O35659 22-463): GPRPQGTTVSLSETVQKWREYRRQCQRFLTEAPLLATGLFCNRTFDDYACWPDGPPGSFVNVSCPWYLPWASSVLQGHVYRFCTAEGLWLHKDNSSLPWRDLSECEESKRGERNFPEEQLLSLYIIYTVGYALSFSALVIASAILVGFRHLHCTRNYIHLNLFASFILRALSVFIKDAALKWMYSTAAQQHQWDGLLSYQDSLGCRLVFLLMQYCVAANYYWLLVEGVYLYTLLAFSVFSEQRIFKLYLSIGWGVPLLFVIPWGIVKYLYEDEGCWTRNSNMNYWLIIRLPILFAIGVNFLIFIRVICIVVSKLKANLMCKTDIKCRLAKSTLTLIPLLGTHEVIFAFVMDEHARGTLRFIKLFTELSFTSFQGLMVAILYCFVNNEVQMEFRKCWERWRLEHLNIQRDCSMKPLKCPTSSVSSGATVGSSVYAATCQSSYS
Method: Agonistic activity of the test compounds on endogenous GLP-1 receptors was determined using a murine insulinoma cell line. Intracellular cAMP was used as an indicator of receptor activation.
Cells were cultured for 24 h at a density of 10,000 cells/well in a 384-well plate. Medium was removed and 10 μL KRBH buffer (NaCl 130 mM, KCl 3.6 mM, NaH2PO4 0.5 mM, MgSO4 0.5 mM, CaCl2 1.5 mM) containing test compound or GLP-1 (at increasing concentrations from 0.1 pM to 100 nM) or solvent control (0.1% (v/v) DMSO) was added to the wells for 15 minutes at a temperature of 26° C.
The cellular cAMP content is measured using the AlphaScreen cAMP Functional Assay Kit (Perkin Elmer). Measurement was performed using the Envision (PerkinElmer) according to manufacturer's recommendations.
All measurements were performed in quadruplicate.
The resulting cAMP curves were plotted as absolute cAMP concentrations (nM) over log (test compound concentration) and analyzed using the curve fitting program XLfit.

| Compound | pEC50 [1] | Ratio GLP-1/Glucagon [2] | pEC50 [3] | pEC50 ([2]; cAMP formation, CHO cells expressing human GLP-1-R, read-out: EC50 hGLP-1R CHO-K1) |
| --- | --- | --- | --- | --- |
| CCCCCCCCCCCCCCCC(=O)N[C@@H](CCC(=O)NCCCC[C@H](NC(=O)[C@H](CO)NC(=O)[C@H](CC(=O)O)NC(=O)[C@H](CC(C)C)NC(=O)[C@H](Cc1ccc(O)cc1)NC(=O)[C@H](CCCCN)NC(=O)[C@H](CO)NC(=O)[C@H](Cc1ccc(O)cc1)NC(=O)[C@H](CC(=O)O)NC(=O)[C@H](CO)NC(=O)[C@@H](NC(=O)[C@H](Cc1ccccc1)NC(=O)[C@@H](NC(=O)CNC(=O)[C@H](Cc1c[nH]cn1)NC(=O)C1(NC(=O)[C@@H](N)Cc2c[nH]cn2)CCC1)[C@@H](C)O)[C@@H](C)O)C(=O)N[C@@H](C)C(=O)N[C@@H](C)C(=O)N[C@@H](Cc1c[nH]cn1)C(=O)N[C@@H](CC(=O)O)C(=O)N[C@@H](Cc1ccccc1)C(=O)N[C@H](C(=O)N[C@@H](CCC(=O)O)C(=O)N[C@@H](Cc1c[nH]c2ccccc12)C(=O)N[C@@H](CC(C)C)C(=O)N[C@@H](CC(C)C)C(=O)N[C@@H](CO)C(=O)N[C@@H](C)C(N)=O)C(C)C)C(=O)O [Compound 9] (H-H[Ac4c]HGTFTSDYSKYLDSK([γGlu-Palmitoyl])AAHDFVEWLLSA-NH2) | 9.70 | 1.65 | 9.68 | – |
| CCCCCCCCCCCCCCCC(=O)N[C@@H](CCC(=O)NCCCC[C@H](NC(=O)[C@H](CCC(=O)O)NC(=O)[C@H](CC(=O)O)NC(=O)[C@H](CC(C)C)NC(=O)[C@H](Cc1ccc(O)cc1)NC(=O)[C@H](CCCCN)NC(=O)[C@H](CO)NC(=O)[C@H](Cc1ccc(O)cc1)NC(=O)[C@H](CC(=O)O)NC(=O)[C@H](CO)NC(=O)[C@@H](NC(=O)[C@H](Cc1ccccc1)NC(=O)[C@@H](NC(=O)CNC(=O)[C@H](CCC(N)=O)NC(=O)C(C)(C)NC(=O)[C@@H](N)Cc1c[nH]cn1)[C@@H](C)O)[C@@H](C)O)C(=O)N[C@@H](C)C(=O)N[C@@H](C)C(=O)N[C@@H](CCCCN)C(=O)N[C@@H](CC(=O)O)C(=O)N[C@@H](Cc1ccccc1)C(=O)N[C@H](C(=O)N[C@@H](CCC(=O)O)C(=O)N[C@@H](Cc1c[nH]c2ccccc12)C(=O)N[C@@H](CC(C)C)C(=O)N[C@@H](CCC(=O)O)C(=O)N[C@@H](CCC(=O)O)C(=O)N[C@@H](CCC(=O)O)C(N)=O)[C@@H](C)CC)C(=O)O [Compound 17] (H-H[Aib]QGTFTSDYSKYLDEK([γGlu-Palmitoyl])AAKDFIEWLEEE-NH2) | – | 3.38 | 9.68 | 9.57 |
